Data reported in patent US8575200B2, “Pyridin-2-yl derivatives as immunomodulating agents” (Actelion Pharmaceuticals Ltd, priority 2008, dated 2013).
Marks after values point to notes of the source that are not given here.

Molecular target: recombinant human S1P1 receptor (Homo sapiens, UniProt P21453)
Test: GTPγS assay to determine EC50 values
Assay type: biochemical
Conditions: 35S-GTPγS binding, membrane preparations of CHO cells expressing recombinant human S1P1 receptor, agonistic activity
Method: GTPγS binding assays are performed in 96 well microtiter plates (Nunc, 442587) in a final volume of 200 μl, using membrane preparations of CHO cells expressing recombinant human S1P1 receptor. Assay conditions are 20 mM Hepes (Fluka, 54461), 100 mM NaCl (Fluka, 71378), 5 mM MgCl2 (Fluka, 63064), 0.1% BSA (Calbiochem, 126609), 1 μM GDP (Sigma, G-7127), 2.5% DMSO (Fluka, 41644), […] ^35S-GTPγS (Amersham Biosciences, SJ1320). The pH is 7.4. Test compounds are dissolved and diluted in 100% DMSO and pre-incubated at room temperature for 30 min in 150 μl of the above assay buffer, in the absence of ^35S-GTPγS. After addition of 50 μl of ^35S-GTPγS, the assay is incubated for 1 h at rt. The assay is terminated by transfer of the reaction mixture to a Multiscreen plate (Millipore, MAHFC1H60) using a cell harvester from Packard Biosciences, and the plates are washed with ice-cold 10 mM Na2HPO4/NaH2PO4 (70%/30%), dried, sealed at the bottom and, after addition of 25 μl MicroScint20 (Packard Biosciences, order #6013621), sealed on the top. Membrane-bound ^35S-GTPγS is measured with a TopCount from Packard Biosciences.
EC50 is the concentration of agonist inducing 50% of the maximal specific ^35S-GTPγS binding. Specific binding is determined by subtracting non-specific binding from maximal binding. Maximal binding is the amount of cpm bound to the Multiscreen plate in the presence of 10 μM of S1P. Non-specific binding is the amount of binding in the absence of an agonist in the assay.

Chain of recombinant human S1P1 receptor (P21453 whole entry): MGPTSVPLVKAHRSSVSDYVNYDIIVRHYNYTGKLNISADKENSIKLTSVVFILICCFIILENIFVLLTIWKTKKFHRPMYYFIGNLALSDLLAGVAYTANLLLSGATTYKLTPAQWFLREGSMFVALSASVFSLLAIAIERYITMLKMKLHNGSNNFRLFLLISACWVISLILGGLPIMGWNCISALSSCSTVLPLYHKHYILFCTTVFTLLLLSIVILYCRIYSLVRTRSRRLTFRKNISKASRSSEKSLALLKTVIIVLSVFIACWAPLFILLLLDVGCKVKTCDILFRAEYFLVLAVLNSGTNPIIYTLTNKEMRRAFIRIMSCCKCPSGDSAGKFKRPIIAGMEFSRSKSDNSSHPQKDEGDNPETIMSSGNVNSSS

Point of comparison: `CCC(CC)c1cc(OC)cc(-c2nc(-c3cc(C)c(OC[C@@H](O)CO)c(Cl)c3)no2)n1` [Example 65, (S)-3-(2-chloro-4-{5-[6-(1-ethyl-propyl)-4-methoxy-pyridin-2-yl]-[1,2,4]oxadiazol-3-yl}-6-methyl-phenoxy)-propane-1,2-diol], EC50 9.4 nM. Against it:
- COc1cc(CC(C)C)nc(-c2nc(-c3cc(C)c(OC[C@@H](O)CNC(=O)CO)c(C)c3)no2)c1 [Example 10] — 3.5-fold lower, 2.7 nM
- CCc1cc(-c2noc(-c3cc(OC)cc(CC(C)C)n3)n2)cc(C)c1OC[C@@H](O)CNC(=O)CO [Example 17, N—((S)-3-{2-ethyl-4-[5-(6-isobutyl-4-methoxy-pyridin-2-yl)-[1,2,4]oxadiazol-3-yl]-6-methyl-phenoxy}-2-hydroxy-propyl)-2-hydroxy-acetamide] — 4.1-fold lower, 2.3 nM
- CCc1cc(-c2noc(-c3cc(C)c(CC(C)C)cn3)n2)cc(C)c1OC[C@H](O)CO [Example 33, (R)-3-{2-ethyl-4-[5-(5-isobutyl-4-methyl-pyridin-2-yl)-[1,2,4]oxadiazol-3-yl]-6-methyl-phenoxy}-propane-1,2-diol] — within 1.5-fold, 7.2 nM
- CCc1cc(-c2noc(-c3cc(C)c(CC(C)C)cn3)n2)cc(C)c1OC[C@@H](O)CO [Example 34, (S)-3-{2-ethyl-4-[5-(5-isobutyl-4-methyl-pyridin-2-yl)-[1,2,4]oxadiazol-3-yl]-6-methyl-phenoxy}-propane-1,2-diol] — within 1.5-fold, 9.1 nM
- CCc1cc(-c2noc(-c3cc(C)c(CC(C)C)cn3)n2)cc(C)c1CCC(=O)NCCC(=O)O [Example 40, 3-(3-{2-Ethyl-4-[5-(5-isobutyl-4-methyl-pyridin-2-yl)-[1,2,4]oxadiazol-3-yl]-6-methyl-phenyl}-propionylamino)-propionic acid] — 2.8-fold lower, 3.3 nM
- CCc1cc(-c2noc(-c3cc(C)c(CC(C)C)cn3)n2)cc(C)c1OCCNCCC(=O)O [Example 50, 3-(2-{2-Ethyl-4-[5-(5-isobutyl-4-methyl-pyridin-2-yl)-[1,2,4]oxadiazol-3-yl]-6-methyl-phenoxy}-ethylamino)-propionic acid] — 1.8-fold lower, 5.1 nM
- CCc1cc(-c2noc(-c3cc(C)c(CC(C)C)cn3)n2)cc(C)c1OCCNC(=O)CO [Example 51, N-(2-{2-Ethyl-4-[5-(5-isobutyl-4-methyl-pyridin-2-yl)-[1,2,4]oxadiazol-3-yl]-6-methyl-phenoxy}-ethyl)-2-hydroxy-acetamide] — within 1.5-fold, 8.8 nM
- CCc1cc(-c2noc(-c3cc(C)c(CC(C)C)cn3)n2)cc(C)c1OC(CO)CO [Example 55, 2-{2-Ethyl-4-[5-(5-isobutyl-4-methyl-pyridin-2-yl)-[1,2,4]oxadiazol-3-yl]-6-methyl-phenoxy}-propane-1,3-diol] — 2-fold lower, 4.7 nM
- CCc1cc(-c2noc(-c3cc(C)c(CC(C)C)cn3)n2)cc(C)c1OC[C@@H](O)CNCCO [Example 58, 1-{2-Ethyl-4-[5-(5-isobutyl-4-methyl-pyridin-2-yl)-[1,2,4]oxadiazol-3-yl]-6-methyl-phenoxy}-3-((2S)-2-hydroxy-ethylamino)-propan-2-ol] — within 1.5-fold, 11.2 nM
- CCc1cc(-c2noc(-c3cc(C)c(CC(C)C)cn3)n2)cc(C)c1OC[C@@H](O)CNS(=O)(=O)CC [Example 59, Ethanesulfonic acid ((2S)-3-{2-ethyl-4-[5-(5-isobutyl-4-methyl-pyridin-2-yl)-[1,2,4]oxadiazol-3-yl]-6-methyl-phenoxy}-2-hydroxy-propyl)-amide] — within 1.5-fold, 11.9 nM
- CCc1cc(-c2noc(-c3cc(C)c(CC(C)C)cn3)n2)cc(C)c1OC[C@@H](O)CNCCC(=O)O [Example 61, 3-((2S)-3-{2-Ethyl-4-[5-(5-isobutyl-4-methyl-pyridin-2-yl)-[1,2,4]oxadiazol-3-yl]-6-methyl-phenoxy}-2-hydroxy-propylamino)-propionic acid] — 4.1-fold lower, 2.3 nM
- CCc1cc(-c2noc(-c3cc(C)cc(C(CC)CC)n3)n2)cc(C)c1OC[C@@H](O)CO [Example 62, (S)-3-(2-Ethyl-4-{5-[6-(1-ethyl-propyl)-4-methyl-pyridin-2-yl]-[1,2,4]oxadiazol-3-yl}-6-methyl-phenoxy)-propane-1,2-diol] — 4.3-fold lower, 2.2 nM
- CCc1cc(-c2noc(-c3cc(OC)cc(C(CC)CC)n3)n2)cc(C)c1OC[C@@H](O)CNC(=O)CO [Example 69, N—[(S)-3-(2-ethyl-4-{5-[6-(1-ethyl-propyl)-4-methoxy-pyridin-2-yl]-[1,2,4]oxadiazol-3-yl}-6-methyl-phenoxy)-2-hydroxy-propyl]-2-hydroxy-acetamide] — 3-fold lower, 3.1 nM
- CCC(CC)c1cc(OC)cc(-c2nc(-c3cc(C)c(OC[C@@H](O)CNC(=O)CO)c(C)c3)no2)n1 [Example 70, N—[(S)-3-(4-{5-[6-(1-ethyl-propyl)-4-methoxy-pyridin-2-yl]-[1,2,4]oxadiazol-3-yl}-2,6-dimethyl-phenoxy)-2-hydroxy-propyl]-2-hydroxy-acetamide] — 3.4-fold lower, 2.8 nM
- CCC(CC)c1cc(OC)cc(-c2nc(-c3cc(C)c(OC[C@@H](O)CNC(=O)CO)c(Cl)c3)no2)n1 [Example 71, N—[(S)-3-(2-chloro-4-{5-[6-(1-ethyl-propyl)-4-methoxy-pyridin-2-yl]-[1,2,4]oxadiazol-3-yl}-6-methyl-phenoxy)-2-hydroxy-propyl]-2-hydroxy-acetamide] — 12-fold lower, 0.8 nM
- CCC(CC)c1cc(OC)cc(-c2nc(-c3cc(C)c(OC[C@@H](O)CNC(=O)CO)c(OC)c3)no2)n1 [Example 72, N—[(S)-3-(4-{5-[6-(1-ethyl-propyl)-4-methoxy-pyridin-2-yl]-[1,2,4]oxadiazol-3-yl}-2-methoxy-6-methyl-phenoxy)-2-hydroxy-propyl]-2-hydroxy-acetamide] — within 1.5-fold, 8.8 nM
- CCc1cc(-c2nc(-c3cc(C)c(CC(C)C)cn3)no2)cc(C)c1OC[C@@H](O)CNC(=O)CO [Example 74, N-((2S)-3-{2-Ethyl-4-[3-(5-isobutyl-4-methyl-pyridin-2-yl)-[1,2,4]oxadiazol-5-yl]-6-methyl-phenoxy}-2-hydroxy-propyl)-2-hydroxy-acetamide] — within 1.5-fold, 9 nM

Same assay, conditions: 35S-GTPγS binding, membranes of CHO cells expressing recombinant human S1P1 receptor

In the case of `CCc1cc(-c2nnc(-c3cc(C)c(CC(C)C)cn3)o2)cc(C)c1OC[C@@H](O)CN` [Example 43], the EC50 is reported as > 10000 nM.

Test system: circulating lymphocytes
Test: Assessment of in vivo efficacy: circulating lymphocytes after oral administration
Parameters: species or system normotensive male Wistar rats
Conditions: 3 h after administration; oral 10 mg/kg, male Wistar rats, compared to vehicle group
Method: The efficacy of the compounds of Formula (I) is assessed by measuring the circulating lymphocytes after oral administration of 3 to 30 mg/kg of a compound of Formula (I) to normotensive male Wistar rats. The animals are housed in climate-controlled conditions with a 12 h-light/dark cycle, and have free access to normal rat chow and drinking water. Blood is collected before and 3, 6 and 24 h after drug administration. Full blood is subjected to hematology using Advia Hematology system (Bayer Diagnostics, Zürich, Switzerland).
All data are presented as mean±SEM. Statistical analyses are performed by analysis of variance (ANOVA) using Statistica (StatSoft) and the Student-Newman-Keuls procedure for multiple comparisons. The null hypothesis is rejected when p<0.05.
Lymphocyte counts 6 h after oral administration have been measured for 7 of the exemplified compounds (Table 2) and are in the range of −35% to −74% with an average of −64%.

`CCc1cc(-c2noc(-c3cc(C)c(CC(C)C)cn3)n2)cc(C)c1OC(CO)CO` [Example 55, 2-{2-Ethyl-4-[5-(5-isobutyl-4-methyl-pyridin-2-yl)-[1,2,4]oxadiazol-3-yl]-6-methyl-phenoxy}-propane-1,3-diol] showed a Lymphocyte counts of −65%*.

Same assay, conditions: 6 h after oral administration of 10 mg/kg to male Wistar rats, compared to vehicle group

Point of comparison: `CCc1cc(-c2noc(-c3cc(C)c(CC(C)C)cn3)n2)cc(C)c1OC[C@@H](O)CNC(=O)CO` [Example 36, N—((S)-3-{2-ethyl-4-[5-(5-isobutyl-4-methyl-pyridin-2-yl)-[1,2,4]oxadiazol-3-yl]-6-methyl-phenoxy}-2-hydroxy-propyl)-2-hydroxy-acetamide], Lymphocyte counts −74%. Against it:
- CCc1cc(-c2noc(-c3cc(C)cc(CC(C)C)n3)n2)cc(C)c1OC[C@@H](O)CNC(=O)CO [Example 1, N—((S)-3-{2-Ethyl-4-[5-(6-isobutyl-4-methyl-pyridin-2-yl)-[1,2,4]oxadiazol-3-yl]-6-methyl-phenoxy}-2-hydroxy-propyl)-2-hydroxy-acetamide] — the same, −74%
- CCc1cc(-c2noc(-c3cc(CC(C)C)cc(C)n3)n2)cc(C)c1OC[C@@H](O)CNC(=O)CO [Example 5, N—((S)-3-{2-Ethyl-4-[5-(4-isobutyl-6-methyl-pyridin-2-yl)-[1,2,4]oxadiazol-3-yl]-6-methyl-phenoxy}-2-hydroxy-propyl)-2-hydroxy-acetamide] — higher, −67%
- CCc1cc(-c2noc(-c3cc(OC)cc(CC(C)C)n3)n2)cc(C)c1OC[C@@H](O)CNC(=O)CO [Example 17, N—((S)-3-{2-ethyl-4-[5-(6-isobutyl-4-methoxy-pyridin-2-yl)-[1,2,4]oxadiazol-3-yl]-6-methyl-phenoxy}-2-hydroxy-propyl)-2-hydroxy-acetamide] — higher, −66%
- CCc1cc(-c2noc(-c3cc(C)c(CC(C)C)cn3)n2)cc(C)c1OC[C@@H](O)CO [Example 34, (S)-3-{2-ethyl-4-[5-(5-isobutyl-4-methyl-pyridin-2-yl)-[1,2,4]oxadiazol-3-yl]-6-methyl-phenoxy}-propane-1,2-diol] — higher, −70%
- CCc1cc(-c2noc(-c3cc(C)c(CC(C)C)cn3)n2)cc(C)c1CCC(=O)NCCC(=O)O [Example 40, 3-(3-{2-Ethyl-4-[5-(5-isobutyl-4-methyl-pyridin-2-yl)-[1,2,4]oxadiazol-3-yl]-6-methyl-phenyl}-propionylamino)-propionic acid] — higher, −35%
